Data on 17 molecules can be found in US9493421B2, “Acridinedione derivatives for treating pigmentation disorders and ageing of the skin” (PIERRE FABRE DERMO-COSMETIQUE, priority 2011, dated 2016).

Series [1] in a line: Test to study anti-oxidizing capability using chemiluminescence (Photochem Analytic Jena). Format: biochemical. The conditions noted are these: quantity of sample needed for activity equivalent to 1 μg Trolox, superoxide anion trapping. Here is the method: This test is used to determine the anti-oxidizing capability of the molecules. It is a method which generates free radicals via photochemical signal. The intensity of oxidation is 1000 times higher than obtained under normal conditions.
Detection is performed using chemiluminescence. This allows evaluation of water-soluble and liposoluble antioxidant molecules or extracts
The results are expressed in equivalent quantity of vitamin C or Trolox (6-hydroxy-2,5,7,8-tetramethylchroman-2-carboxylic acid) respectively. Sensitivity is in the order of one nanomole.
The anti-oxidizing activity studied in this test represents the capability of specifically trapping superoxide anions by chemiluminescence.
The quantified results are expressed in Trolox equivalent (standard) or in “μg of product per 1 μg of Trolox”. This means that a quantity x of sample is needed to obtain activity equivalent to the activity detected with 1 μg of standard. It is the antioxidizing power in relation to a reference; this avoids having to take into account the concentrations tested.
The superoxide radical: O2^∘^− is generated by photochemical reaction: L+hv(UV)+O2→L*O2→L^∘^++O2^∘^− • L*: luminol in the excited state L^∘+: luminol radical Signal Detection
Part of the superoxide anions are inhibited by the antioxidants. The remaining free radicals are quantified by chemiluminescence. L^∘^++O2^∘^−→N2+AP*^2−→AP^2−+hv (luminescence)
AP*^2−: aminophthalate in the excited state

In series [2] the test system is B16-F10 cells. The experiment in a line: Assay of melanin in B16-F10 cells (colorimetric, α-MSH stimulated). The format is cell-based, murine. As to conditions: 0.1 μM α-MSH. Here is the method:
It is a test to measure the synthesis of melanin by colorimetric assay on a murine melanoma cell line: line B16-F10. With this test it is possible to evaluate the depigmenting or propigmenting property of active ingredients.
The B16-F10 cells were seeded in 96-well plates in DMEM medium supplemented with FCS (foetal calf serum), and incubated 24 h at 37° C., 5% CO2. The cells were stimulated with 0.1 μM α-MSH (to stimulate melanin synthesis, the observed stimulation being about 150%) and treated 72 h with the active ingredients to be assayed. Each concentration of active ingredient was assayed at least in triplicate. Total melanin and intracellular melanin dissolved in lysis buffer were assayed by absorbance read-off at 405 nm. The total proteins were assayed in the lysate and the results expressed in mg melanin/mg proteins. Percentage activity was calculated as follows: […]
A negative value indicates inhibition of the melanin synthesis and translates depigmenting activity of the compound, whereas a positive value indicates induced melanin synthesis and translates a propigmenting property of the molecule.
• B16-F10 cell lines between P10 and P20 (murine melanocytes) (ATCC, CRL-6475); • reagents: DMEM without Phenol Red (GIBCOBRL, 118800-028), 200 mM glutamax-I supplement (GIBCOBRL, 35050-038), glucose (SIGMA, G7021), PBS (GIBCOBRL, 14190-094), foetal calf serum (Invitrogen, 10270-098), trypsin-EDTA (GIBCOBRL, 25300-054), NaOH (Sigma, S8045-500G), DMSO (Sigma, 471267-11), Nle, Phe-Melanocyte Stimulating Hormone (Sigma, M-8764), melanin (Sigma, M-0418), BCA-COPPER (SIGMA, B9643 and C2284), BSA (SIGMA, P0914) B) Test to Study Anti-Oxidizing Capability Using Chemiluminescence (Photochem Analytic Jena) Principle

Series [3] is described as follows: Log P (octanol/water partition coefficient). Format: physicochemical. The text has this: Log P, also called Log Kow, is a measurement of the differential solubility of chemical compounds in two solvents (octanol/water partition coefficient).
Log P is equal to the logarithm of the ratio of the concentrations of the examined substance in octanol and in water. Log P=Log(Coct/Cwater). With this value it is possible to assess the hydrophilic or hydrophobic (lipophilic) nature of a molecule. If Log P is positive and very high, this means that the molecule under consideration is much more soluble in octanol than in water, which reflects its lipophilic nature, and conversely. A value of Log P=0 means that the molecule is distributed equally between the two phases and Coct=Cwater (C. Hansch, J. F. Quinlan, G. L. Lawrence, Linear free energy relationship between partition coefficients and the aqueous solubility of organic liquids, J. Org. Chem., 33 (1968), 347-350; C. Hansch, A. Leo, Exploring QSAR—Fundamentals and Applications in Chemistry and Biology, American Chemical Society, Washington, 1995; J. Sangster, Octanol—Water Partition Coefficients: Fundamentals and Physical Chemistry, Wiley, Chichester, 1997; W. Jorgensen, E. Duffy, Advanced Drug Delivery Reviews, (54), 2002, 355-366).

Where [4] appears, read: Mus musculus, B16-F10, 72 h, negative = inhibition, positive = stimulation, read-out: Melanin synthesis on B16.

For the molecule `CN1C2=C(C(=O)CC(C)(C)C2)C(c2ccc(O)c(O)c2)C2=C1CC(C)(C)CC2=O` [Example 4, 9-(3,4-dihydroxyphenyl)-3,3,6,6,10-pentamethyl-3,4,6,7,9,10-hexahydroacridine-1,8(2H,5H)-dione], the “μg sample per 1 μg of Trolox” value in series [1] is reported as 0.017 μg sample per 1 μg of Trolox.

By melting point is commonly meant the temperature of the solid-liquid transition. By logP is commonly meant a log measure of how a compound divides between an organic and an aqueous phase. Regarding `COc1cc(C2C3=C(CC(C)(C)CC3=O)NC3=C2C(=O)CC(C)(C)C3)ccc1O` [Example 10, 9-(4-hydroxy-3-methoxyphenyl)-3,3,6,6-tetramethyl-3,4,6,7,9,10-hexahydroacridine-1,8(2H,5H)-dione], the melting point came out at 309.8 °C. Further, in series [2] (setting [4]), the activation at 100 µM came out at 29%. In addition, the logP in series [3] was determined as 1.49.

With `COc1cc(C2C3=C(CC(C)(C)CC3=O)N(C)C3=C2C(=O)CC(C)(C)C3)ccc1O` [Example 11, 9-(4-hydroxy-3-methoxyphenyl)-3,3,6,6,10-pentamethyl-3,4,6,7,9,10-hexahydroacridine-1,8(2H,5H)-dione], the activation at 100 µM in series [2] (setting [4]) was 47%. Moreover, the lipophilicity (logP) in series [3] is 1.72.

As to `CCN1C2=C(C(=O)CC(C)(C)C2)C(c2ccc(O)c(OC)c2)C2=C1CC(C)(C)CC2=O` [Example 12, 10-ethyl-9-(4-hydroxy-3-methoxyphenyl)-3,3,6,6-tetramethyl-3,4,6,7,9,10-hexahydroacridine-1,8(2H,5H)-dione], the activation at 50 µM in series [2] (setting [4]) amounted to 72%. The molecule also yielded a logP in series [3] of 2.06.

`CCCN1C2=C(C(=O)CC(C)(C)C2)C(c2ccc(O)c(OC)c2)C2=C1CC(C)(C)CC2=O` [Example 13, 9-(4-hydroxy-3-methoxyphenyl)-3,3,6,6-tetramethyl-10-propyl-3,4,6,7,9,10-hexahydroacridine-1,8(2H,5H)-dione] gave a melting point of 259.5 °C. In addition, in series [2] (setting [4]), the activation at 50 µM came to 43%. In series [3], this molecule gave a logP of 2.55.

On to `CCCCN1C2=C(C(=O)CC(C)(C)C2)C(c2ccc(O)c(OC)c2)C2=C1CC(C)(C)CC2=O` [Example 14, 10-butyl-9-(4-hydroxy-3-methoxyphenyl)-3,3,6,6-tetramethyl-3,4,6,7,9,10-hexahydroacridine-1,8(2H,5H)-dione], for which the activation at 20 µM in series [2] (setting [4]) came out at 45%. For the same molecule, in series [3], the lipophilicity (logP) came to 2.97.

On to `CCCCCN1C2=C(C(=O)CC(C)(C)C2)C(c2ccc(O)c(OC)c2)C2=C1CC(C)(C)CC2=O` [Example 15, 9-(4-hydroxy-3-methoxyphenyl)-3,3,6,6-tetramethyl-10-pentyl-3,4,6,7,9,10-hexahydroacridine-1,8(2H,5H)-dione], for which the melting point is 194.5 °C. Moreover, the activation at 50 µM in series [2] (setting [4]) is 42%. For the same molecule, the lipophilicity (logP) in series [3] was determined as 3.38.

As for `CCCCCCN1C2=C(C(=O)CC(C)(C)C2)C(c2ccc(O)c(OC)c2)C2=C1CC(C)(C)CC2=O` [Example 16, 10-hexyl-9-(4-hydroxy-3-methoxyphenyl)-3,3,6,6-tetramethyl-3,4,6,7,9,10-hexahydroacridine-1,8(2H,5H)-dione], the melting point worked out at 177.7 °C. Besides, the logP in series [3] stood at 3.8.

`CCCCCCCN1C2=C(C(=O)CC(C)(C)C2)C(c2ccc(O)c(OC)c2)C2=C1CC(C)(C)CC2=O` [Example 17, 10-heptyl-9-(4-hydroxy-3-methoxyphenyl)-3,3,6,6-tetramethyl-3,4,6,7,9,10-hexahydroacridine-1,8(2H,5H)-dione] had a melting point of 154.8 °C. In addition, the activation at 20 µM in series [2] (setting [4]) is -68%. Besides, the log partition coefficient (logP) in series [3] is 4.22.

Consider `CCCCCCCCN1C2=C(C(=O)CC(C)(C)C2)C(c2ccc(O)c(OC)c2)C2=C1CC(C)(C)CC2=O` [Example 18, 9-(4-hydroxy-3-methoxyphenyl)-3,3,6,6-tetramethyl-10-octyl-3,4,6,7,9,10-hexahydroacridine-1,8(2H,5H)-dione], for which the melting point was determined as 154.2 °C. Also, the activation at 5 µM in series [2] (setting [4]) was -59%. The molecule further registered a logP in series [3] of 4.63.

In the case of `CCCCCCCCCN1C2=C(C(=O)CC(C)(C)C2)C(c2ccc(O)c(OC)c2)C2=C1CC(C)(C)CC2=O` [Example 19, 9-(4-hydroxy-3-methoxyphenyl)-3,3,6,6-tetramethyl-10-nonyl-3,4,6,7,9,10-hexahydroacridine-1,8(2H,5H)-dione], the melting point worked out at 127 °C. Also, the activation at 5 µM in series [2] (setting [4]) is -42%. The same molecule registered a logP in series [3] of 5.05.

Regarding `CCCCCCCCCCCN1C2=C(C(=O)CC(C)(C)C2)C(c2ccc(O)c(OC)c2)C2=C1CC(C)(C)CC2=O` [Example 20, 9-(4-hydroxy-3-methoxyphenyl)-3,3,6,6-tetramethyl-10-undecyl-3,4,6,7,9,10-hexahydroacridine-1,8(2H,5H)-dione], the melting point is 118.9 °C. For the same molecule, the activation at 5 µM in series [2] (setting [4]) is -57%. In series [3], the logP is 5.89.

`COc1cc(C2C3=C(CC(C)(C)CC3=O)N(Cc3ccccc3)C3=C2C(=O)CC(C)(C)C3)ccc1O` [Example 21, 10-benzyl-9-(4-hydroxy-3-methoxyphenyl)-3,3,6,6-tetramethyl-3,4,6,7,9,10-hexahydroacridine-1,8(2H,5H)-dione]: in series [2] (setting [4]), the activation at 100 µM was found to be 48%. The logP in series [3] is 3.46.

In turn, `COc1cc(C2C3=C(CC(C)(C)CC3=O)N(CCc3ccccc3)C3=C2C(=O)CC(C)(C)C3)ccc1O` [Example 22, 9-(4-hydroxy-3-methoxyphenyl)-3,3,6,6-tetramethyl-10-phenethyl-3,4,6,7,9,10-hexahydroacridine-1,8(2H,5H)-dione] returned a logP in series [3] of 3.74.

Take `COc1cc(C2C3=C(CC(C)(C)CC3=O)N(CCCc3ccccc3)C3=C2C(=O)CC(C)(C)C3)ccc1O` [Example 23, 9-(4-hydroxy-3-methoxyphenyl)-3,3,6,6-tetramethyl-10-(3-phenylpropyl)-3,4,6,7,9,10-hexahydroacridine-1,8(2H,5H)-dione]: in series [2] (Mus musculus, B16-F10, at 10 μM, 72 h, negative = inhibition, positive = stimulation, read-out: Melanin synthesis on B16), the activation at 10 µM was -37%. The molecule further yielded a logP in series [3] of 4.15.

Regarding `COc1cc(C2C3=C(CC(C)(C)CC3=O)N(CC(c3ccccc3)c3ccccc3)C3=C2C(=O)CC(C)(C)C3)ccc1O` [Example 24, 10-(2,2-diphenylethyl)-9-(4-hydroxy-3-methoxyphenyl)-3,3,6,6-tetramethyl-3,4,6,7,9,10-hexahydroacridine-1,8(2H,5H)-dione], the activation at 5 µM in series [2] (setting [4]) was -37%. Also, in series [3], the logP was 5.32.

As for “Nle, Phe-Melanocyte Stimulating Hormone [α-MSH, reference compound]”, the “Stimulation of melanin synthesis” value in series [2] (B16-F10 cells) is “about 150%”.
